Measurements published in patent US7544497B2, “Compositions for manipulating the lifespan and stress response of cells and organisms” (President and Fellows of Harvard College, priority 2003, dated 2009).

Assays:
[1] = tested on: rDNA silencing; experiment: Ribosomal DNA silencing assay (URA3 reporter); format: cell-based, S. cerevisiae
Description: Ribosomal DNA silencing assays using the URA3 reporters were performed as previously described^26. Ribosomal DNA recombination frequencies were determined by plating W303AR cells^37 on YPD medium with low adenine/histidine and counting the fraction of half-red sectored colonies using Bio-Rad Quantity One software as previously described^35. At least 6000 cells were analyzed per experiment and all experiments were performed in triplicate. All strains were pre-grown for 15 hours with the relevant compound prior to plating.

[2] = tested on: C. elegans; experiment: C. elegans lifespan assay; format: in vivo
Description: Thus, the presence of resveratrol in the growth media of C. elegans extends their lifespan.
Bristol N2 (Caenorhabditis Genetics Center) was used as the wild-type strain. The sir-2.1 mutant strain was generated by backcrossing VC199 (sir-2.1 (ok434)) to N2 four times. Cultures were grown on standard NGM media and maintained on E. coli strain OP50. For the lifespan assays, synchronized animals were transferred to treatment plates as young adults (2 d after hatching, day 0 of assay), and were transferred to fresh treatment plates every 2 days for the first 6 to 8 days of the assay. […] For some lifespan trials, heat-killed OP50 were used as a food source. OP50 cultures were heated to 65° C. for 30 minutes, then pelleted and resuspended in 1/10 volume in S Basal supplemented with 10 mM MgSO4. In all assays, worms were monitored daily for mortality by gently probing with a platinum pick. Assays were performed at 24° C.

[3] = tested on: D. melanogaster; experiment: D. melanogaster adult survival assay; format: in vivo
Description: Survival assays were conducted independently with adult D. melanogaster in two laboratories. In the first laboratory, all trials used an yw marked wild-type strain. […] Newly eclosed adults were placed in 1L demography cages with approximately 75 males and 75 females. Three to four replicate 1L demography cages were used for each treatment group in each trial. Every two days, dead flies were removed and scored, and food vials were replenished. Food vials contained cornmeal-sugar-yeast diet with SAF yeast as either 2% or 3% by weight. […] Fresh stock solutions and adult media were prepared weekly. In the second laboratory, lifespan trials were conducted with the wild type strain Canton-S, dSir2^4.5 and […], University of Oregon), […], Stockholm University, Sweden), and dSir2^KG00871 (Drosophila Stock Center, Bloomington, Ind.). Larvae for all tests were reared on standard cornmeal-sugar-yeast diet. […] In all trials, 20 males with 20 females were placed into each of 10 vials/treatment group. Every two days, flies were passed into new vials and dead flies were counted. […] Fresh stock solution and adult media was prepared weekly.

[4] = target: T1, SIRT1 deacetylase (Homo sapiens, UniProt Q96EB6); experiment: High-throughput SIRT1 screening protocol (384 well); format: biochemical; details: 200 μM NAD+, 5 μM Fluor de Lys-SIRT1 substrate; roughly 50 μM
T1 construct: purchased BIOMOL
T1 sequence (Q96EB6 1-747): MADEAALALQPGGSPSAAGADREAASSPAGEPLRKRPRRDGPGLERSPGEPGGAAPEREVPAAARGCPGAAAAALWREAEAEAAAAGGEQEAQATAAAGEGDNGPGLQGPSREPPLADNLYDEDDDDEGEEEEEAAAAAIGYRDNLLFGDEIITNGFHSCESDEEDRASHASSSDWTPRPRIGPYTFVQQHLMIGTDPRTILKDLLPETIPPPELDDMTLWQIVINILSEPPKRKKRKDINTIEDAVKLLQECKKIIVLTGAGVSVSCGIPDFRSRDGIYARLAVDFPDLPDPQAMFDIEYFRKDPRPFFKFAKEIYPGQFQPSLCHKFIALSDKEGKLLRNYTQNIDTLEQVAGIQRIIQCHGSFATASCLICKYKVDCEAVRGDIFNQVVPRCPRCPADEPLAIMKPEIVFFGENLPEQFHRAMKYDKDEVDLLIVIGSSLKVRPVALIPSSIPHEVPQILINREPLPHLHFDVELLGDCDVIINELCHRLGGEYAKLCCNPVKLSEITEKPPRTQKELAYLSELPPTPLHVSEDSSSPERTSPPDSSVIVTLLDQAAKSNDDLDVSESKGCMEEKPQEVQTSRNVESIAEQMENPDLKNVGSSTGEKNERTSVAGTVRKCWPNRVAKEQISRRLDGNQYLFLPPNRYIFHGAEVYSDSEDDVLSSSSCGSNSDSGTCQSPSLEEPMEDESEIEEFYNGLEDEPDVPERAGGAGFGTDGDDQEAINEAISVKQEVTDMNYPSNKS
Description: The reaction mixture contains (final): 0.5 units/reaction SIRT1 deacetylase (BIOMOL); 200 μM NAD^+; 5 μM Fluor de Lys-SIRT1 substrate (BIOMOL); buffer (25 mM Tris/Cl, pH 8.0, 137 mM NaCl, 2.7 mM KCl, 1 mM MgCl2, and 1 mg/ml BSA). In addition, a reaction mixture containing no enzyme was made so that each well receiving compound has a corresponding “no enzyme control” well. Reactions were performed in black 384 well plates (NUNC) in a final volume of 25 μl/well.
The reactions were started by combining enzyme and substrate in a reaction mixture immediately prior to aliquoting in plates (or substrate only for “no enzyme control” plates). Mixture were aliquoted to plates using Biotek μFill (Biotek Instruments). Control mixtures were manually added to designated wells. A library compound was added at a desired concentration by pin transfer to both “with enzyme” and “no enzyme” plates. Compounds were added in at least triplicate (with enzyme reaction in duplicate and no enzyme controls) at a final concentration of roughly 50 μM. The plates were incubated at 37° C. for 30-60 minutes. Then 25 μl of 1× Developer II (BIOMOL) plus 2 mM nicotinamide were added to all wells to stop the reactions. The reactions were left for at least 30 minutes at 37° C. for the signal to develop. The plates were read in a microplate-reading fluorometer capable of excitation at a wavelength in the range of 350-380 nm and detection of emitted light in the range of 440-460 nm. A read time of 0.1 sec per well was used.

Oc1ccc(/C=C/c2cc(O)cc(O)c2)cc1 [Resveratrol, 3,5,4′-Trihydroxy-trans-stilbene]
effect on rDNA silencing [1]: only minor effects
lifespan extension ([2]; sir-2.1 mutants, 100 μM, heat-killed OP50, not statistically significant): 5.2%
lifespan extension ([2]; sir-2.1 mutants, 100 μM, live OP50, P=0.81): 3.3%
lifespan extension ([2]; wild-type N2, 100 μM, live OP50): 12.6%
lifespan extension (up to) ([2]; wild-type worms, 100 μM, heat-killed or live E. coli): up to 15%
lifespan increase (up to) ([3]; Canton-S/dSir2^KG0087): up to 17%
lifespan in flies lacking or severely decreased in dSir2 ([3]; dSir2^4.5/dSir2^5.26 or dSir2^17/dSir2^KG00871, 100 μM): failed to extend lifespan
longevity increase in flies homozygous for a hypomorphic dSir2 allele ([3]; dSir2^KG0087/dSir2^KG0087): small but statistically significant amount
longevity on restricted diet ([3]; restricted diet): neither resveratrol nor fisetin further increased longevity
lifespan extension (up to) ([3]; wild type, males and females, independent tests): up to 29%
activation of SIRT1 (positive controls) [4]: 2.2 fold
